Where no end group is shown, it is not given here.
Key:
[1] = system: NKG2A+/NKG2C− NK cells; experiment: NK cell activation markers in NKG2A+/NKG2C- NK cells incubated with peptide and K562 expressing HLA-E (inhibition); format: cell-based, human; settings: for effect on NKG2A+/NKG2C− NK cell inhibition (in words): K562 expressing HLA-E, CD107a, IFNG, TNF, CCL3; for percentage of CCL3+ NK cells / percentage of CD107a+ NK cells / percentage of IFNG+ NK cells / percentage of TNF+ NK cells: NKG2A+/NKG2C- NK cells, K562/HLA-E
Method in brief: (§1)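 K562 + HLA-E, pulsed with human/CMV proteome peptides → incubated with sorted NK subsets → surface marker staining, % positive cells. Increase = activation; decrease = inhibition.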

[2] = system: NKG2A−/NKG2C+ NK cells; experiment: NK cell activation markers in NKG2A-/NKG2C+ NK cells incubated with peptide and K562 expressing HLA-E (activation); format: cell-based, human; settings: for effect on NKG2A−/NKG2C+ NK cell activation (in words): K562 expressing HLA-E, CD107a, IFNG, TNF, CCL3; for percentage of CCL3+ NK cells / percentage of CD107+ NK cells / percentage of IFNG+ NK cells / percentage of TNF+ NK cells: NKG2A-/NKG2C+ NK cells, K562/HLA-E
Method in brief: as §1

[3] = system: NKG2A−/NKG2C− NK cells; experiment: NK cell activation markers in control NKG2A-/NKG2C- NK cells incubated with peptide and K562 expressing HLA-E; format: cell-based, human
Method in brief: as §1

[4] = system: NKG2A−/NKG2C+ NK cells; experiment: NKG2A-/NKG2C+ NK cell activation with peptide and RMA-S cells expressing HLA-E; format: cell-based; settings: RMA-S cells expressing HLA-E, NKG2A−/NKG2C+ NK cells
Protocol: An antigen processing-defective lymphoma cell line (RMA-S), with a low-level expression of HLA-E, were incubated with the novel peptides to determine the inhibitory strength on NKG2A−/NKG2C+NK cells relative to positive control sequences with differential effects ([…] (SEQ ID NO: 19)/VMAPRTLFL (SEQ ID NO: 18)). The effects of the peptides on NK cell inhibition were determined by measuring four markers of NK cell activation (CD107a, IFNG, TNF, CCL3) in NKG2A−/NKG2C+NK cells (FIGS. 2A-2D). Activation was indicated by an increase in percent cells positive for cell surface markers.

[5] = molecular target: CD94/NKG2A (Homo sapiens, UniProt P26715+Q13241); experiment: Steady-state surface plasmon resonance of peptide-HLA-E complex with CD94/NKG2A; format: binding; settings: for Binding of peptide-HLA-E complexes to CD94/NKG2A normalized to a theoretical Rmax: steady-state SPR
Protocol: Binding affinity of novel peptides linked to HLA-E was determined using surface plasmon resonance (SPR), a methodology used to study protein-protein interactions (Tables 15-19). The peptide-HLA-E complex (generated as a single chain trimer) was immobilized on the sensor chip surface and CD94/NKG2A or CD94/NKG2C were flowed over. Steady-state surface plasmon resonance experiments were performed with a Biacore T200 instrument. CD94/NKG2x in HBS-EP+ buffer was injected as analyte in a concentration range of 0.1 μM to 102.4 μM and flow rate of 10 μL/min at 25° C. Data was fit with Prism 9.4 (GraphPad Software Inc; San Diego CA) to a “one site, specific binding” model. Series S CM5 chips were coupled to neutravidin and utilized. Biotinylated pMHC was immobilized at approximately 400 RU. KD values calculated by Biacore software are reported. Rmax, fit values were calculated by Biacore software. Rmax, theoretical values were calculated using the analyte/ligand mass ratio (0.66) multiplied by the amount of ligand coupled to the chip.

CD94/NKG2A, sequence (P26715 94-233 limits assumed): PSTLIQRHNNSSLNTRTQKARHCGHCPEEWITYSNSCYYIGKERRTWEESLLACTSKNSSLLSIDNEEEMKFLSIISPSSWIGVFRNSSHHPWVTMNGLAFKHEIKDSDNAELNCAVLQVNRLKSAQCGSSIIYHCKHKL
CD94/NKG2A, sequence (Q13241 32-179 limits assumed): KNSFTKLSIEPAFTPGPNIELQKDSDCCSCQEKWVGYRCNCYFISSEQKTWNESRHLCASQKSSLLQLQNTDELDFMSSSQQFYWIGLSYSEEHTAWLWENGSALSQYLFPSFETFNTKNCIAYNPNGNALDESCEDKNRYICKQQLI

## TAPARTMFL [human13, TAPARTMFL]
[1]; listed as SEQ ID NO. 5
  effect on NKG2A+/NKG2C− NK cell inhibition (in words): no or minimal effect
[1]; listed as h13
  effect on NKG2A+/NKG2C− NK cell inhibition (in words): no effect
[1]; Trial 1
  percentage of CCL3+ NK cells: 52.5%
  percentage of CD107a+ NK cells: 31.2%
  percentage of IFNG+ NK cells: 13%
  percentage of TNF+ NK cells: 3.99%
[1]; Trial 2
  percentage of CCL3+ NK cells: 75.9%
  percentage of CD107a+ NK cells: 50.6%
  percentage of IFNG+ NK cells: 30.8%
  percentage of TNF+ NK cells: 13.8%
[1]; Trial 3
  percentage of CCL3+ NK cells: 52.6%
  percentage of CD107a+ NK cells: 44.4%
  percentage of IFNG+ NK cells: 31.7%
  percentage of TNF+ NK cells: 17%
[1]; Trial 4
  percentage of CCL3+ NK cells: 47.3%
  percentage of CD107a+ NK cells: 37.6%
  percentage of IFNG+ NK cells: 21.7%
  percentage of TNF+ NK cells: 12.6%
[1]; Trial 5
  percentage of CCL3+ NK cells: 48.9%
  percentage of CD107a+ NK cells: 32.2%
  percentage of IFNG+ NK cells: 16.9%
  percentage of TNF+ NK cells: 7.45%
[1]; Trial 6
  percentage of CCL3+ NK cells: 39.3%
  percentage of CD107a+ NK cells: 28.2%
  percentage of IFNG+ NK cells: 8.81%
  percentage of TNF+ NK cells: 5.68%
[2]; listed as SEQ ID NO. 5
  effect on NKG2A−/NKG2C+ NK cell activation (in words): activate
[2]; listed as h13
  effect on NKG2A−/NKG2C+ NK cell activation (in words): activated
[2]; Trial 1
  percentage of CCL3+ NK cells: 56.9%
  percentage of CD107+ NK cells: 38.3%
  percentage of IFNG+ NK cells: 18.2%
  percentage of TNF+ NK cells: 9.29%
[2]; Trial 2
  percentage of CCL3+ NK cells: 74.9%
  percentage of CD107+ NK cells: 57%
  percentage of IFNG+ NK cells: 28.7%
  percentage of TNF+ NK cells: 20.7%
[2]; Trial 3
  percentage of CCL3+ NK cells: 72.4%
  percentage of CD107+ NK cells: 71.2%
  percentage of IFNG+ NK cells: 49.2%
  percentage of TNF+ NK cells: 37.9%
[2]; Trial 4
  percentage of CCL3+ NK cells: 60.7%
  percentage of CD107+ NK cells: 57.1%
  percentage of IFNG+ NK cells: 40.8%
  percentage of TNF+ NK cells: 33%
[2]; Trial 5
  percentage of CCL3+ NK cells: 61.9%
  percentage of CD107+ NK cells: 56.2%
  percentage of IFNG+ NK cells: 34.2%
  percentage of TNF+ NK cells: 27.4%
[2]; Trial 6
  percentage of CCL3+ NK cells: 40.7%
  percentage of CD107+ NK cells: 29.1%
  percentage of IFNG+ NK cells: 14.3%
  percentage of TNF+ NK cells: 8.92%
[3]; Trial 1
  percentage CCL3+ NK cells: 37.2%
  percentage CD107+ NK cells: 26.3%
  percentage TNF+ NK cells: 3.65%
  percentage of IFNG+ NK cells: 16.6%
[3]; Trial 2
  percentage CCL3+ NK cells: 65.4%
  percentage CD107+ NK cells: 43%
  percentage TNF+ NK cells: 11.9%
  percentage of IFNG+ NK cells: 32.5%
[3]; Trial 3
  percentage CCL3+ NK cells: 56.2%
  percentage CD107+ NK cells: 56.4%
  percentage TNF+ NK cells: 23.2%
  percentage of IFNG+ NK cells: 49.4%
[3]; Trial 4
  percentage CCL3+ NK cells: 37.7%
  percentage CD107+ NK cells: 31.8%
  percentage TNF+ NK cells: 12.1%
  percentage of IFNG+ NK cells: 22.2%
[3]; Trial 5
  percentage CCL3+ NK cells: 30.1%
  percentage CD107+ NK cells: 22.7%
  percentage TNF+ NK cells: 8.01%
  percentage of IFNG+ NK cells: 18.9%
[3]; Trial 6
  percentage CCL3+ NK cells: 27.4%
  percentage CD107+ NK cells: 21.1%
  percentage TNF+ NK cells: 3.64%
  percentage of IFNG+ NK cells: 8.06%
[4]
  increase in CCL3+ NK cells (in words): slight increases
  increase in CD107a+ NK cells (in words): slight increases
  increase in IFNG+ NK cells (in words): no increase
  increase in TNF+ NK cells (in words): no increase
[5]; CD94/NKG2A concentration 0 μM
  binding of peptide-HLA-E complex to CD94/NKG2A normalized to a fitted Rmax: 0.010
[5]; CD94/NKG2A concentration 0.1 μM
  binding of peptide-HLA-E complex to CD94/NKG2A normalized to a fitted Rmax: 0.024
[5]; CD94/NKG2A concentration 0.2 μM
  binding of peptide-HLA-E complex to CD94/NKG2A normalized to a fitted Rmax: 0.037
[5]; CD94/NKG2A concentration 0.4 μM
  binding of peptide-HLA-E complex to CD94/NKG2A normalized to a fitted Rmax: 0.066
[5]; CD94/NKG2A concentration 0.8 μM
  binding of peptide-HLA-E complex to CD94/NKG2A normalized to a fitted Rmax: 0.115
[5]; CD94/NKG2A concentration 1.6 μM
  binding of peptide-HLA-E complex to CD94/NKG2A normalized to a fitted Rmax: 0.191
[5]; CD94/NKG2A concentration 3.2 μM
  binding of peptide-HLA-E complex to CD94/NKG2A normalized to a fitted Rmax: 0.302
[5]; CD94/NKG2A concentration 6.4 μM
  binding of peptide-HLA-E complex to CD94/NKG2A normalized to a fitted Rmax: 0.432
[5]; CD94/NKG2A concentration 12.8 μM
  binding of peptide-HLA-E complex to CD94/NKG2A normalized to a fitted Rmax: 0.558
[5]; CD94/NKG2A concentration 25.6 μM
  binding of peptide-HLA-E complex to CD94/NKG2A normalized to a fitted Rmax: 0.685
[5]; CD94/NKG2A concentration 51.2 μM
  binding of peptide-HLA-E complex to CD94/NKG2A normalized to a fitted Rmax: 0.819
[5]; CD94/NKG2A concentration 102.4 μM
  binding of peptide-HLA-E complex to CD94/NKG2A normalized to a fitted Rmax: 0.961
[5]; CD94/NKG2A analyte concentration 0.000 μM
  Binding of peptide-HLA-E complexes to CD94/NKG2A normalized to a theoretical Rmax: 0.006
[5]; CD94/NKG2A analyte concentration 0.100 μM
  Binding of peptide-HLA-E complexes to CD94/NKG2A normalized to a theoretical Rmax: 0.015
[5]; CD94/NKG2A analyte concentration 0.200 μM
  Binding of peptide-HLA-E complexes to CD94/NKG2A normalized to a theoretical Rmax: 0.023
[5]; CD94/NKG2A analyte concentration 0.400 μM
  Binding of peptide-HLA-E complexes to CD94/NKG2A normalized to a theoretical Rmax: 0.042
[5]; CD94/NKG2A analyte concentration 0.800 μM
  Binding of peptide-HLA-E complexes to CD94/NKG2A normalized to a theoretical Rmax: 0.074
[5]; CD94/NKG2A analyte concentration 1.600 μM
  Binding of peptide-HLA-E complexes to CD94/NKG2A normalized to a theoretical Rmax: 0.122
[5]; CD94/NKG2A analyte concentration 3.200 μM
  Binding of peptide-HLA-E complexes to CD94/NKG2A normalized to a theoretical Rmax: 0.193
[5]; CD94/NKG2A analyte concentration 6.400 μM
  Binding of peptide-HLA-E complexes to CD94/NKG2A normalized to a theoretical Rmax: 0.277
[5]; CD94/NKG2A analyte concentration 12.800 μM
  Binding of peptide-HLA-E complexes to CD94/NKG2A normalized to a theoretical Rmax: 0.357
[5]; CD94/NKG2A analyte concentration 25.600 μM
  Binding of peptide-HLA-E complexes to CD94/NKG2A normalized to a theoretical Rmax: 0.439
[5]; CD94/NKG2A analyte concentration 51.200 μM
  Binding of peptide-HLA-E complexes to CD94/NKG2A normalized to a theoretical Rmax: 0.524
[5]; CD94/NKG2A analyte concentration 102.400 μM
  Binding of peptide-HLA-E complexes to CD94/NKG2A normalized to a theoretical Rmax: 0.615

Reference: patent publication US20240092835A1, “NOVEL PEPTIDES CAPABLE OF ALTERING NK CELL ACTIVITY” (Massachusetts Institute of Technology, priority 2022, published 2024)
